This is an account of results in patent publication US9938316B2, “Selective inhibitors of α2 isoform of Na,K-ATPase and use thereof for reduction of intra-ocular pressure and as cardiotonic agents” (priority 2013, dated 2018).

A word on the Ki: it is the equilibrium dissociation constant of an inhibitor or competing ligand from its target.

The test system of data set [1] is Na,K-ATPase α2β1 isoform complex. Briefly: biochemical. The class given is biochemical, human. As to conditions: Kiα1β1/Kiα2β1. As for the experimental part: (§1) Methods for transformation, culture of P. pastoris clones, protein expression of Na,K-ATPase human isoforms (α1β1, α2β1, α3β1), membrane preparation, solubilization of membranes in DDM, and purification on BD-Talon beads have been described in detail (6-9, 11, 25). In initial experiments the three purified isoform complexes (0.3-0.5 mg/ml) were eluted from the BD-Talon beads in a solution containing Imidazole 170 mM, NaCl 100 mM; Tricine.HCl 20 mM pH 7.4; C12E8, 0.1 mg/ml; SOPS 0.07 mg/ml cholesterol 0.01 mg/ml, glycerol 25%. In later experiments the isoforms complexes were reconstituted with purified FXYD1 on the BD-Talon beads together as described in detail in (10, 11) prior to elution of α1β1FXYD1, α2β1FXYD1 and α3β1FXYD1 complexes. The proteins were stored at −80° C. Protein concentration was determined with BCA (B9643 Sigma).
(§2) Inhibition of Na,K-ATPase activity of the detergent-soluble α1β1, α2β1, and α3β1 complexes by CG's was determined as described (6) using either the αβ or αβFXYD1 complexes. […] The K0.5K was estimated by varying K concentration in a medium containing a fixed total K+choline chloride of 60 mM, and constant NaCl of 140 mM. Curves were fitted to the Hill function v=Vmax*[S]^n/([S]^n+K^n), where S is the K concentration, n is the Hill coefficient and K^n is K0.5K. For comparison of different curves the ratio v/Vmax for each curve was calculated and replotted. In experiments to assess inhibition of Na,K-ATPase activity by cardiac glycosides of the present invention, the percent inhibition VCG/V0 was calculated and Ki values were obtained by fitting the data to the function VCG/V0=Ki/([CG]+Ki)+ c. Inhibition was estimated in 3-8 separate experiments and average Ki values ±SEM were calculated. Significance of differences between Kiα1 and Kiα2 was calculated by the unpaired Student's t-test (p values). […] P values <0.05 were considered significant.

The target of data set [2] is Na,K-ATPase α2β1 isoform complex (Homo sapiens, UniProt P50993). Briefly: biochemical. The class given is biochemical. As to conditions: α2β1. As for the experimental part:
as §1, §2

The target in data set [3] is Na,K-ATPase α1β1 isoform complex (Homo sapiens, UniProt P05023). Briefly: biochemical. Conditions: α1β1. The protocol: as §1, §2
The subject of data set [4] is intra-ocular pressure (IOP) of rabbits. Briefly: 4-aminopyridine (4AP)-induced ocular hypertension in rabbits. The class given is in vivo, New Zealand white rabbits. As for the experimental part:
Intra-ocular pressure in rabbits was measured using of a “Reichert Model 30™ Pneumatonometer” after anesthetizing the cornea with local anesthetic.
Since the IOP reflects a balance of the inflow and outflow of aqueous humour, reduction of the increased 4AP-induced inflow of aqueous humour by cardiac glycosides should prevent the increase in IOP. Thus, the standard experimental design to test effects of cardiac glycosides involved topical application of the compounds (1 drop in each eye) 30 minutes prior to application of 4AP and measurement of IOP every 30 minutes over five hours. […] Each experiment was done three times, but the figures depict a representative experiment using a different rabbit for each concentration of the cardiac glycoside.
DGlyN or DMe (0.1 or 1 mM) were applied one hour after the first application of 4AP, which was added every two hours.
New Zealand white rabbits (3-3.5 kg) about 1 year old, of either sex, were housed individually in separate cages in animal room conditions on a reversed, 12-hour dark/light cycle. For the experiments the animals were transferred to rabbit restrainers in a quiet and calm atmosphere (FIG. 1). […] Animal care and treatment were subject to the approval of the institutional committee for animal experiments, Weizmann Institute IACUC permission (no 04270911-2).
IOP (mm Hg) of rabbits was measured using a calibrated Pneumatonometer (Model 30, Reichert technologies, FIG. 1). A local anesthetic Oxybuprocaine HCl (0.4%, 25 μl) was applied to each cornea about a minute before IOP measurements. Two baseline IOP readings were taken before topical administration of the CG (or PBS as control) and after half an hour (Zero time). […] At zero time one drop of 4AP (40 mg/ml, 30 μl) or IB-MECA (1 μM, 30 μl) was administered to both eyes of each rabbit IOP measurements were made at different times as indicated in each experiment. In the experiments for which the IOP was elevated for several hours, 4AP was added every […] or IB-MECA every 2 hours. […] In all cases the figures depict the average effect on IOP (i.e for four or six eyes) compared to control ±SEM. […] Significance of differences from the control was calculated by the unpaired Students t-test (p values), p values <0.05 were considered significant. Corneal thickness (μm) was measured using an ultrasonic pachymeter (Sonogage pachometer, Cleveland, USA), before and during the experiment with CG and 4AP treatments. The values represent averages of three independent measurements for each eye.

Another data set deals with cornea of rabbits. Briefly: Pachymetry: corneal thickness and local toxicity after topical cardiac glycosides. The class given is in vivo, New Zealand white rabbits. As to conditions: for Corneal thickness: 1 mM. As for the experimental part: Thus, in this study, no change in corneal thickness was detected (Table 3), indicative of lack of local toxic effects. […] Similar results were obtained with CG's applied after IB-MECA.
IOP (mm Hg) of rabbits was measured using a calibrated Pneumatonometer (Model 30, Reichert technologies, FIG. 1). A local anesthetic Oxybuprocaine HCl (0.4%, 25 μl) was applied to each cornea about a minute before IOP measurements. Two baseline IOP readings were taken before topical administration of the CG (or PBS as control) and after half an hour (Zero time). […] At zero time one drop of 4AP (40 mg/ml, 30 μl) or IB-MECA (1 μM, 30 μl) was administered to both eyes of each rabbit IOP measurements were made at different times as indicated in each experiment. In the experiments for which the IOP was elevated for several hours, 4AP was added every 1.5 hours or IB-MECA every 2 hours. […] Each experiment was repeated two or three times with similar results. In all cases the figures depict the average effect on IOP (i.e for four or six eyes) compared to control ±SEM. Where error bars are not seen in the figures, the errors are smaller than the symbols used. Significance of differences from the control was calculated by the unpaired Students t-test (p values), p values <0.05 were considered significant. Corneal thickness (μm) was measured using an ultrasonic pachymeter (Sonogage pachometer, Cleveland, USA), before and during the experiment with CG and 4AP treatments. The values represent averages of three independent measurements for each eye.

Each structure is given as a SMILES string. Like-named read-outs stand apart in the source and are kept apart here.

On to `CC1CN(CCC(N)=O)CCC(OC2C(O)CC(OC3C(O)CC(OC4CCC5(C)C(CCC6C5CC(O)C5(C)C(C7=CC(=O)OC7)CCC65O)C4)OC3C)OC2C)O1` (stereo not drawn) [DPrN], for which the “Selectivity ratio Ki α1/α2 ± S.E.” value in data set [1] came to 5.28±0.75. Besides, the Ki is 47 ± 7.8 nM in data set [2] (Ki ± S.E. α2, Table 2) and 249 ± 37 nM in data set [3] (Ki ± S.E. α1, Table 2).
`C[C@]12CC[C@H](O)C[C@H]1CC[C@@H]1[C@@H]2C[C@@H](O)[C@]2(C)[C@@H](C3=CC(=O)OC3)CC[C@]12O` [Digoxigenin, digoxigenin, reference compound]: the Ki in data set [2] (Ki ± S.E. α2, Table 2) is 130 ± 13.5 nM; in data set [3] (Ki ± S.E. α1, Table 2), 139 ± 17 nM. Besides, in data set [4] (1 mM, single drop, 4AP every two hours), the “Time IOP is maintained at the low level” value is listed as “about 2 hours”.
Regarding `CC1CN(CC(=O)O)CCC(OC2C(O)CC(OC3CCC4(C)C(CCC5C4CC(O)C4(C)C(C6=CC(=O)OC6)CCC54O)C3)OC2C)O1` (stereo not drawn) [DbisGly], the “Selectivity ratio Ki α1/α2 ± S.E.” value in data set [1] stood at 2.29 ± 0.80. Also, the Ki in data set [2] (Ki ± S.E. α2, Table 2) turned out to be 34.9 ± 12 nM; in data set [3] (Ki ± S.E. α1, Table 2), 80 ± 5.5 nM.
For `CC1CN(CC(=O)O)CCC(OC2C(O)CC(OC3C(O)CC(OC4CCC5(C)C(CCC6C5CC(O)C5(C)C(C7=CC(=O)OC7)CCC65O)C4)OC3C)OC2C)O1` (stereo not drawn) [DGly], the “Selectivity ratio Ki α1/α2 ± S.E.” value in data set [1] came to 5.1±0.54. The Ki in data set [2] (Ki ± S.E. α2, Table 2) worked out at 25 ± 3.9 nM; in data set [3] (Ki ± S.E. α1, Table 2), 124 ± 8.6 nM.
On to `CC1CN(C(CO)C(=O)O)CCC(OC2C(O)CC(OC3C(O)CC(OC4CCC5(C)C(CCC6C5CC(O)C5(C)C(C7=CC(=O)OC7)CCC65O)C4)OC3C)OC2C)O1` (stereo not drawn) [DSer], for which, in data set [1], the “Selectivity ratio Ki α1/α2 ± S.E.” value stood at 2.18 ± 0.86. The Ki in data set [2] (Ki ± S.E. α2, Table 2) stood at 145 ± 28.5 nM; in data set [3] (Ki ± S.E. α1, Table 2) it was 316 ± 109 nM.
The corresponding values for `CC1CN(NC(N)=O)CCC(OC2C(O)CC(OC3C(O)CC(OC4CCC5(C)C(CCC6C5CC(O)C5(C)C(C7=CC(=O)OC7)CCC65O)C4)OC3C)OC2C)O1` (stereo not drawn) [DSCar] are 4.98±1.2, 20 ± 3.6 nM and 102 ± 23 nM.
The corresponding values for `CC1CN(C(C)C(N)=O)CCC(OC2C(O)CC(OC3C(O)CC(OC4CCC5(C)C(CCC6C5CC(O)C5(C)C(C7=CC(=O)OC7)CCC65O)C4)OC3C)OC2C)O1` (stereo not drawn) [DAlaN] are 3.46 ± 0.59, 67 ± 8.1 nM and 232 ± 28 nM.
The corresponding values for `CC1CN(O)CCC(OC2C(O)CC(OC3C(O)CC(OC4CCC5(C)C(CCC6C5CC(O)C5(C)C(C7=CC(=O)OC7)CCC65O)C4)OC3C)OC2C)O1` (stereo not drawn) [DOH] are 2.32 ± 0.62, 134 ± 35 nM and 311 ± 18.5 nM.
With `COC(=O)CN1CCC(OC2C(O)CC(OC3C(O)CC(OC4CCC5(C)C(CCC6C5CC(O)C5(C)C(C7=CC(=O)OC7)CCC65O)C4)OC3C)OC2C)OC(C)C1` (stereo not drawn) [DGlMe], the “Selectivity ratio Ki α1/α2 ± S.E.” value in data set [1] is 4.22 ± 0.88. Also, the Ki in data set [2] (Ki ± S.E. α2, Table 2) worked out at 128 ± 11 nM; in data set [3] (Ki ± S.E. α1, Table 2), 540 ± 102 nM.
As for `C[C@@H]1O[C@@H](O[C@H]2C[C@@H](O)[C@]3(CO)[C@H]4[C@H](O)C[C@]5(C)[C@@H](C6=CC(=O)OC6)CC[C@]5(O)[C@@H]4CC[C@]3(O)C2)[C@H](O)[C@H](O)[C@H]1O` [Ouabain, ouabain, reference compound], the Corneal thickness stood at 455 microns with cornea of rabbits (left eye, 0 h); 409 microns in the data set with cornea of rabbits (left eye, 2 h); 422 microns in the data set on cornea of rabbits (left eye, 4 h); 461 microns in the data set with cornea of rabbits (right eye, 0 h); 405 microns in the data set with cornea of rabbits (right eye, 2 h); 414 microns in the data set with cornea of rabbits (right eye, 4 h). Also, the “Corneal thickness (in words)” value with cornea of rabbits (over 4 hours, after 4AP, Digoxin 1 mM, DGlyN 0.5 mM, DMe 0.5 mM, ouabain 1 mM) is “not significantly affected”. Besides, the “Redness or local irritation in conjunctiva or cornea” value with cornea of rabbits (topical, after 4AP) was “neither redness nor local irritation were observed”. Besides, the “Effect on 4AP-induced rise in IOP” value in data set [4] (1 mM, 1 drop topically 30 minutes prior to 4AP) is listed as “somewhat reduced IOP”; in data set [4] (concentrations lower than 1 mM, topically 30 minutes prior to 4AP), “poorly effective”. For the same compound, in data set [4] (equal concentrations, 4AP every two hours), the “Wash-out time/rate compared with other cardiac glycosides” value is “washed out at a rate between that of digoxin and digoxigenin”.
Take `Nc1ccncc1` [4AP, 4-aminopyridine, reference compound]: the “Rise of IOP” value in data set [4] (one or two drops (40 mg/ml) in each eye) was 3-6 mm Hg.
Take `C[C@H]1O[C@@H](O[C@H]2[C@@H](O)C[C@H](O[C@H]3CC[C@@]4(C)[C@H](CC[C@@H]5[C@@H]4C[C@@H](O)[C@]4(C)[C@@H](C6=CC(=O)OC6)CC[C@]54O)C3)O[C@@H]2C)C[C@H](O)[C@@H]1O` [Dbis, digoxigenin bis digitoxide, reference compound]: in data set [1], the “Selectivity ratio Ki α1/α2 ± S.E.” value is recorded as 2.65 ± 0.81. In addition, the Ki in data set [2] (Table 2, read-out: Ki ± S.E. α2) worked out at 74 ± 5 nM; in data set [3] (Table 2, read-out: Ki ± S.E. α1) it was 196 ± 8.5 nM.
Consider `CC1CN(CCN)CCC(OC2C(O)CC(OC3C(O)CC(OC4CCC5(C)C(CCC6C5CC(O)C5(C)C(C7=CC(=O)OC7)CCC65O)C4)OC3C)OC2C)O1` (stereo not drawn) [DEtDA], for which the “Selectivity ratio Ki α1/α2 ± S.E.” value in data set [1] came to 4.10 ± 0.82. In addition, the Ki in data set [2] (Ki ± S.E. α2, Table 2) stood at 16.7 ± 2.1 nM; in data set [3] (Ki ± S.E. α1, Table 2) it was 69 ± 10 nM.
The corresponding values for `CC1CN(C(CO)C(N)=O)CCC(OC2C(O)CC(OC3C(O)CC(OC4CCC5(C)C(CCC6C5CC(O)C5(C)C(C7=CC(=O)OC7)CCC65O)C4)OC3C)OC2C)O1` (stereo not drawn) [DSerN] are 1.68 ± 0.13, 144 ± 3.5 nM and 242 ± 15 nM.
